Reference: publication PMC3369139, “Preclinical evaluation of two ^68Ga-siderophores as potential radiopharmaceuticals for Aspergillus fumigatus infection imaging” (European Journal of Nuclear Medicine and Molecular Imaging, 2012)
Several values for one entry are separate records, joined by “and”; a condition that tells them apart may be missing. Equal values may be shown once.

Tests used:
Stability in 6 mM DTPA = assay type: physicochemical
Description: (§1) TAFC and FOXE were labelled with ^68Ga using acetate buffer at room temperature for 15 min (TAFC) and at 80 °C for 20 min (FOXE). For all in vitro and in vivo studies, the pH of the final product was adjusted with 1.1 M sodium acetate to pH 6–7. The radiochemical purity, log P, protein binding and stability of ^68Ga-siderophores in various media were determined, as described previously.

Stability in human serum = assay type: in vitro ADME
Description: as §1

A. fumigatus [1] = experiment: PET imaging in rat A. fumigatus infection model; assay type: in vivo, Lewis rats; settings: infected rats, lungs, mean ± sd
Description: (§2) Female or male Lewis rats (2–3 months old), weighing 200–250 g, were treated as described previously. Briefly, the rats received repeated intraperitoneal injections of cyclophosphamide to induce neutropenia before A. fumigatus administration. To prevent bacterial superinfection, the animals were given antibiotics throughout the experiment. Fungal infection was established by intratracheal administration of 100–300 μl of A. fumigatus inoculum in various concentrations (1 × 10^5 to 1 × 10^9 conidia per millilitre). Animals were injected intravenously 1–3 days (depending on the severity of infection) after A. fumigatus administration with ^68Ga-labelled siderophore (10–20 MBq and 1–2 μg of siderophore per rat). The rats were imaged or killed by overdosing with thiopental (Sandoz, Kundl, Austria) 2 h after injection. Various organs and tissues (blood, spleen, kidneys, liver and lungs) were removed and radioactivity was measured in a γ-counter. The excised organs were investigated for the presence of fungi, as described below.
PET images were acquired with an Inveon animal PET/CT scanner (Siemens Preclinical Solutions, Knoxville, TN) with an intrinsic spatial resolution of 1.5 mm. The animals were placed in a prone position. Static PET images were acquired over 30 min starting 30 min after intravenous injection of ^68Ga-siderophore. Dynamic PET imaging was started upon injection and continued up to 60 min after injection. In addition, combined PET/CT scans were performed for anatomical reference. PET emission scans were acquired for 30 min, preceded by CT scans (spatial resolution 113 μm, 80 kV, 500 μA, exposure time 300 ms). After imaging, animals were killed by CO2/O2. Scans were reconstructed using Inveon Acquisition Workplace software (version 1.5; Siemens Preclinical Solutions, Knoxville, TN) using a 3-D ordered subset expectation maximization/maximum a posteriori (OSEM3D/MAP) algorithm with the following parameters: matrix 256 × 256 × 159, pixel size 0.43 × 0.43 × 0.8 mm^3 and a MAP prior β-value of 1.5.

A. fumigatus [2] = experiment: Ex vivo biodistribution in rat A. fumigatus infection model, iron preload; design: species or system Lewis rats
Description: (§3) The A. fumigatus (A29) isolate was grown on Sabouraud dextrose agar (BD) for 5 days at 37 °C, and the conidia were harvested in 2 ml of sterile NaCl by gently rubbing with a pipette tip. The conidia suspension was transferred into a sterile 50 ml plastic tube. After homogenization (vortex) and filtration (40 μm nylon cell strainer; BD), the suspension was counted in a Neubauer chamber and adjusted to the volitional concentration in the range 1 × 10^5 to 1 × 10^9 conidia per millilitre.
as §2
Rats were treated as in the ‘standard’ infection model above, except that iron solution (FerMed; Medice, Iserlohn, Germany) 10 mg/kg was injected intraperitoneally three times (1 week, 4 days and 1 day) before A. fumigatus administration.
(§4) The excised organs were homogenized in a petri dish using a sterile surgical blade and transferred to Sabouraud dextrose agar (BD) plates. The plates were incubated at 37 °C and examined daily for 7 days. […] Severe infection was defined as the presence of severe fungal growth 1 day after incubation, mild infection was defined as the presence of minor growth up to 3 days after incubation, and no infection was defined as lack of growth within 1 week of incubation.

[3] = Protein binding in human serum; assay type: in vitro ADME
Description: as §1

A. fumigatus [4] = experiment: Ex vivo biodistribution in rat A. fumigatus infection model, standard; design: species or system Lewis rats
Description: as §3, §2, §4

Stability in 0.1 M FeCl3 = assay type: physicochemical
Description: as §1

[5] = Log P of ^68Ga-siderophores; assay type: physicochemical; settings: determined as described previously [20]
Description: as §1

[6] = Biodistribution in normal Balb/c mice; assay type: in vivo; settings: normal noninfected Balb/c mice, i.v. tail vein
Description: Normal noninfected Balb/c mice (female, 6 weeks old) were injected with ^68Ga-siderophore (2 MBq and 0.1–0.2 μg of siderophore per mouse) into the tail vein. Animals were killed by cervical dislocation 30 min and 90 min after injection. The organs and tissues (blood, spleen, pancreas, stomach, intestines, kidneys, liver, heart, lungs, muscle and femur) were removed and radioactivity was counted in a γ-counter. The results are expressed as percentage of injected dose per gram of tissue.

[7] = iron preload model, 2 h after injection

O=C1CCC(=O)N([O-])CCCCCNC(=O)CCC(=O)N([O-])CCCCCNC(=O)CCC(=O)N([O-])CCCCCN1.[68Ga+3] [^68Ga-FOXE, ferrioxamine E]
Stability in 6-mM DTPA (%) (Stability in 6 mM DTPA; incubation time 30 min): 94.3% | Stability in 6-mM DTPA (%) (Stability in 6 mM DTPA; incubation time 60 min): 93.8% | Stability in 6-mM DTPA (%) (Stability in 6 mM DTPA; incubation time 120 min): 93.2% | Stability in all of the tested media (Stability in human serum; human serum, 0.1 M FeCl3 and 6 mM DTPA, summary bound over all media): ≥ 90% | Stability in human serum (%) (Stability in human serum; incubation time 30 min): 99.9% | Stability in human serum (%) (Stability in human serum; incubation time 60 min): 99.9% | Stability in human serum (%) (Stability in human serum; incubation time 120 min): 99.9% | SUV (A. fumigatus [1]; calculated from PET imaging studies, n=10 (table)): 1.00 ± 0.81 (n=10) | Target/non-target ratio (A. fumigatus [1]; calculated from all PET imaging studies, n=13): 6.64 ± 2.91 (n=13) | Severe infection (%ID/g - lungs) (A. fumigatus [2]; iron preload model (10 mg/kg i.p. three times), severely infected rats, lungs 2 h after injection, n in cell): 1.72 (n=1) %ID/g | Lung/blood ratio, control (A. fumigatus [2]; [7]): 0.64 (n=2) | Lung/blood ratio, mild infection (A. fumigatus [2]; [7]): 0.81 (n=2) | Lung/blood ratio, severe infection (A. fumigatus [2]; [7]): 2.41 (n=1) | Lung/kidneys ratio, control (A. fumigatus [2]; [7]): 0.06 (n=2) | Lung/kidneys ratio, mild infection (A. fumigatus [2]; [7]): 0.12 (n=2) | Lung/kidneys ratio, severe infection (A. fumigatus [2]; [7]): 0.11 (n=1) | Lung/liver ratio, control (A. fumigatus [2]; [7]): 0.58 (n=2) | Lung/liver ratio, mild infection (A. fumigatus [2]; [7]): 1.17 (n=2) | Lung/liver ratio, severe infection (A. fumigatus [2]; [7]): 5.93 (n=1) | Mild infection (%ID/g - lungs) (A. fumigatus [2]; iron preload model, mildly infected rats, lungs 2 h after injection, n in cell): 0.14 (n=2) %ID/g | Control (%ID/g - lungs) (A. fumigatus [2]; iron preload model, rats showing no infection, lungs 2 h after injection, n in cell): 0.04 (n=2) %ID/g | Protein binding (%) ([3]; incubation time 30 min): 0.27% | Protein binding (%) ([3]; incubation time 60 min): 0.24% | Protein binding (%) ([3]; incubation time 120 min): 0.53% | Lung/blood ratio, control (mean ± sd) (A. fumigatus [4]; 2 h after injection): 1.48 ± 0.33 (n=5) | Lung/blood ratio, mild infection (mean ± sd) (A. fumigatus [4]; 2 h after injection): 5.45 ± 5.57 (n=4) | Lung/blood ratio, severe infection (mean ± sd) (A. fumigatus [4]; 2 h after injection): 62.35 ± 77.98 (n=5) | Lung/kidneys ratio, control (mean ± sd) (A. fumigatus [4]; 2 h after injection): 0.07 ± 0.02 (n=5) | Lung/kidneys ratio, mild infection (mean ± sd) (A. fumigatus [4]; 2 h after injection): 0.38 ± 0.42 (n=4) | Lung/kidneys ratio, severe infection (mean ± sd) (A. fumigatus [4]; 2 h after injection): 3.33 ± 2.85 (n=5) | Lung/liver ratio, control (mean ± sd) (A. fumigatus [4]; 2 h after injection): 0.87 ± 0.27 (n=5) | Lung/liver ratio, mild infection (mean ± sd) (A. fumigatus [4]; 2 h after injection): 5.45 ± 5.85 (n=4) | Lung/liver ratio, severe infection (mean ± sd) (A. fumigatus [4]; 2 h after injection): 47.79 ± 39.48 (n=5) | Mild infection (%ID/g - lungs) (mean ± sd) (A. fumigatus [4]; mildly infected rats, lungs ex vivo 2 h after injection, n in cell): 0.48 ± 0.54 %ID/g and 0.48 ± 0.54 (n=4) %ID/g | Control (%ID/g - lungs) (mean ± sd) (A. fumigatus [4]; rats showing no infection, lungs ex vivo 2 h after injection, n in cell): 0.04 ± 0.02 %ID/g and 0.04 ± 0.02 (n=5) %ID/g | Severe infection (%ID/g - lungs) (mean ± sd) (A. fumigatus [4]; severely infected rats, lungs ex vivo 2 h after injection, γ-counter, n in cell): 3.45 ± 1.00 (n=5) %ID/g | Stability in 0.1-M FeCl3 (%) (Stability in 0.1 M FeCl3; incubation time 30 min): 92.9% | Stability in 0.1-M FeCl3 (%) (Stability in 0.1 M FeCl3; incubation time 60 min): 91.8% | Stability in 0.1-M FeCl3 (%) (Stability in 0.1 M FeCl3; incubation time 120 min): 94.5% | Log P [5]: −1.65 | Blood level ([6]; 30 min after injection): 2.4 ± 0.86 %ID/g | Intestinal accumulation ([6]; 30 min after injection): 4.6 ± 1.42 %ID/g | Intestinal accumulation ([6]; 90 min after injection): 2.4 ± 0.85 %ID/g
